The subject of test [1] is CFPAC-1 (human pancreatic cancer cells). Put plainly: Inhibition of cell line proliferation, CCK8. Conditions: CFPAC-1, 68-72 hours, CCK8. The class given is cell-based. Here is the method:
Experimental operations: PANC-1 and CFPAC-1 cells were prepared in advance, counted, and plated in 96-well cell culture plates at a cell density of 4×10^4 cells/ml (100 μl/well); negative control and blank control wells were set on each plate. After adherent cell culture overnight, the diluted samples to be tested were added at 50 μl/well. The plates were placed in an incubator at 37° C., 5% CO2 and cultured for 68-72 hours. To each well, 15 μl (10% of the liquid volume in a well) of a color developing solution from CCK8 was added; and the plates were incubated at 37° C. for 45-70 minutes and each plate was read at 450 nm on a microplate reader. The data was edited using SoftMax Pro and a 4-P fitting curve was plotted.
(§1) Experimental operations: LNCaP, SK-BR-3, NCI-H226, CFPAC-1 and PANC-1 cells were prepared in advance and counted; with a culture medium (IMDM+10% FBS+1× L-Glutamine+1×P/S), the cells LNCaP, SK-BR-3 and CFPAC-1 were diluted to 4×10^4 cells/ml, NCI-H226 was diluted to 2.0×10^4 cells/ml and PANC-1 was diluted to 3.0×10^4 cells/ml; the diluted cell solution was plated in 96-well plates at 100 μl/well; and negative control and blank control wells were set on each plate. After adherent cell culture overnight, the diluted samples to be tested were added at 50 μl/well. The plates were placed in an incubator at 37° C., 5% CO2 and cultured for 68-72 hours. To each well, 15 μl (10% of the liquid volume in a well) of a color developing solution from CCK8 was added; and the plates were incubated at 37° C. for 45-70 minutes and each plate was read at 450 nm on a microplate reader. The data was edited using SoftMax Pro and a 4-P fitting curve was plotted.
(§2) Experimental Operations: LNCaP, SK-BR-3, MDA-MB-468 and CFPAC-1 cells were prepared in advance and counted; with a culture medium (IMDM+10% FBS+1× L-Glutamine+1×P/S), the cells LNCaP, SK-BR-3, MDA-MB-468 and CFPAC-1 were diluted to 4×10^4 cells/ml; the diluted cell solution was plated in 96-well plates at 100 µl/well; and negative control and blank control wells were set on each plate. After adherent cell culture overnight, the diluted samples to be tested were added at 50 μl/well. The plates were placed in an incubator at 37° C., 5% CO2 and cultured for 68-72 hours. To each well, 15 μl (10% of the liquid volume in a well) of a color developing solution from CCK8 was added; and the plates were incubated at 37° C. for 45-70 minutes and each plate was read at 450 nm on a microplate reader. The data was edited using SoftMax Pro and a 4-P fitting curve was plotted.
as §2, with “Operations: LNCaP, MDA-MB-468, CFPAC-1 and PANC-1” for “Operations: LNCaP, SK-BR-3, MDA-MB-468 and CFPAC-1”, “CFPAC-1 and PANC-1 cells were” for “MDA-MB-468 and CFPAC-1 cells were”, “cells LNCaP, MDA-MB-468 and” for “cells LNCaP, SK-BR-3, MDA-MB-468 and”, “to 4×10^4 cells/ml, and PANC-1 was diluted to 3.0×10^4 cells/ml; the” for “to 4×10^4 cells/ml; the”, “at 100 μl/well; and negative” for “at 100 µl/well; and negative”
Experimental operations: NCI-H226, CFPAC-1 and MDA-MB-468 cells were prepared in advance and counted; MDA-MB-468 and CFPAC-1 cells were plated at a density of 2×10^4 cells/ml (100 μl/well) and NCI-H226 cells were plated at a density of 1×10^4 cells/ml (100 μl/well) in 96-well plates; and negative control and blank control wells were set on each plate. After adherent cell culture overnight, the diluted samples to be tested were added at 50 μl/well. The plates were placed in an incubator at 37° C., 5% CO2 and cultured for 68-72 hours. […]

The subject of test [2] is NCI-H226 (human lung cancer cells). Briefly: Inhibition of cell line proliferation, CCK8. It counts as cell-based. Conditions: NCI-H226, 68-72 hours, CCK8. Here is the method:
as §1
(§3) Experimental operations: NCI-H226, CFPAC-1 and MDA-MB-468 cells were prepared in advance and counted; MDA-MB-468 and CFPAC-1 cells were plated at a density of 2×10^4 cells/ml (100 μl/well) and NCI-H226 cells were plated at a density of 1×10^4 cells/ml (100 μl/well) in 96-well plates; and negative control and blank control wells were set on each plate. After adherent cell culture overnight, the diluted samples to be tested were added at 50 μl/well. The plates were placed in an incubator at 37° C., 5% CO2 and cultured for 68-72 hours. To each well, 15 μl (10% of the liquid volume in a well) of a color developing solution from CCK8 was added; and the plates were incubated at 37° C. for 45-70 minutes and each plate was read at 450 nm on a microplate reader. The data was edited using SoftMax Pro and a 4-P fitting curve was plotted.

The test system of test [3] is MDA-MB-468 (human breast cancer cells). Put plainly: Inhibition of cell line proliferation, CCK8. It counts as cell-based. Conditions: MDA-MB-468, 68-72 hours, CCK8. Here is the method:
as §2
as §2, with “Operations: LNCaP, MDA-MB-468, CFPAC-1 and PANC-1” for “Operations: LNCaP, SK-BR-3, MDA-MB-468 and CFPAC-1”, “CFPAC-1 and PANC-1 cells were” for “MDA-MB-468 and CFPAC-1 cells were”, “cells LNCaP, MDA-MB-468 and” for “cells LNCaP, SK-BR-3, MDA-MB-468 and”, “to 4×10^4 cells/ml, and PANC-1 was diluted to 3.0×10^4 cells/ml; the” for “to 4×10^4 cells/ml; the”, “at 100 μl/well; and negative” for “at 100 µl/well; and negative”
as §3

Test [4] concerns lung cancer PDX model LU2505. Put plainly: Effectiveness in lung cancer LU2505 model (PDX model). It counts as in vivo, BALB/c nude mice. The source says:
The active substance of test sample CBP-1018 is CB-20BK, which is obtained by mixing CB-20BK with auxiliary materials and then lyophilizing same.

Test [5] has as its system lung cancer PDX model LU1206. Briefly: Effectiveness in lung cancer LU1206 model (PDX model). The class given is in vivo, BALB/c nude mice.
Protocol: BALB/c nude mice bore tumors subcutaneously and, when the tumor volume reached about 150 mm^3, were grouped into: low-dose, medium-dose and high-dose test sample groups, a small molecule MMAE control group, a targeting polypeptide 20BK-SM09 control group, and a blank control group (a total of 6 groups, and 8 mice per group); the mice were administered on day 1, day 8 and day 15 after the grouping; and the observation was continued for 14 days after the last administration.
Where [6] appears, read: 10 mg/kg on day 1, 8, 15, euthanized on day 29.

As a reminder, the IC50 is the midpoint of a concentration-inhibition curve. Read a high IC50 as weaker potency in that assay.

Molecules are shown by their SMILES. Numbered stars: 1 amine (or outer) side, 2 acyl side, 3 side chain; on linkers, the order of the positions; unused ones are H or OH. Bridge positions count the residues as written; N and C are the ends. Square brackets hold non-standard residues; d marks the D form. Peptide text beside a SMILES is read from it. I, II: the chains in the order shown. * marks the point of attachment. ξ: configuration not given here. Exatecan = CC[C@@]1(O)C(=O)OCc2c1cc1n(c2=O)Cc2c-1nc1cc(F)c(C)c3c1c2[C@@H](N*)CC3; Hexanoyl(6-succinimido-3yl) = O=C1CC([*:1])C(=O)N1CCCCCC(=O)[*:2]; Pteroyl = Nc1nc2ncc(CNc3ccc(C(=O)*)cc3)nc2c(=O)[nH]1; γGlu = O=C(O)[C@H](CCC(=O)[*:2])N[*:1]; NHCH2OCH2CO = O=C(COCN[*:1])[*:2]; ξV = CC(C)C(N)C(=O)O

For `CC[C@@]1(O)C(=O)OCc2c1cc1n(c2=O)Cc2c-1nc1cc(F)c(C)c3c1c2[C@@H](NC(=O)COCNC(=O)CNC(=O)[C@H](Cc1ccccc1)NC(=O)CNC(=O)CNC(=O)CCCCCN1C(=O)CC(SC[C@H](NC(=O)CC[C@H](NC(=O)c2ccc(NCc4cnc5[nH]c(N)nc(=O)c5n4)cc2)C(=O)O)C(=O)N[C@@H](CCCCN)C(=O)N[C@@H](CCC(=O)O)C(=O)N[C@@H](Cc2ccccc2)C(=O)N[C@@H](CC(C)C)C(=O)N[C@@H](Cc2cnc[nH]2)C(=O)N2CCC[C@H]2C(=O)N[C@@H](CO)C(=O)N[C@@H](CCCCN)C(=O)NC(C(=O)N[C@@H](CC(=O)O)C(=O)N[C@@H](CC(C)C)C(=O)N2CCC[C@H]2C(=O)N[C@@H](CCCNC(=N)N)C(=O)O)C(C)C)C1=O)CC3` (stereo partly shown) [CR19425] (I: {Pteroyl-γGlu}-CKEFLHPSK[ξV]DLPR-OH / II: GGFG[NHCH2OCH2CO]-Exatecan; linker I:1-II:N via Hexanoyl(6-succinimido-3yl)), the IC50 in test [1] turned out to be 621 nM; in test [2], 1010 nM; in test [3] it was 951 nM.

For `CCc1c2c(nc3ccc(O)cc13)-c1cc3c(c(=O)n1C2)COC(=O)[C@]3(O)CC` [SN-38, reference compound], the IC50 in test [1] stood at 5.5 nM; in test [2], 17.3 nM; in test [3], 13.6 nM.

Take `CC[C@@]1(O)C(=O)OCc2c1cc1n(c2=O)Cc2c-1nc1cc(F)c(C)c3c1c2[C@@H](NC(=O)CO)CC3` [Dxd0017, reference compound]: the figures for the IC50 in test [1], in test [2] and in test [3] were 6.4 nM, 8 nM and 6.1 nM, respectively.

Take `NCCCC[C@H](CC(=O)[C@H](CC(=O)O)NC(=O)[C@H](CC(=O)O)NC(=O)Cc1ccc(CNC(=O)NCCCC[C@H](NC(=O)N[C@@H](CCC(=O)O)C(=O)O)C(=O)O)cc1)C(=O)N[C@@H](CS)C(=O)N[C@@H](CCCCNC(=O)CC[C@H](NC(=O)c1ccc(NCc2cnc3[nH]c(N)nc(=O)c3n2)cc1)C(=O)O)C(N)=O` [20BK-SM09]: the “tumor growth inhibition effect (in words)” value in test [4] (10 mg/kg) and in test [5] (10 mg/kg) was “no obvious tumor growth inhibition effect” in each case. The Tumor volume amounted to 2024.75 mm^3 in test [4] (10 mg/kg on day 1, 8, 15, D22) and 1158.80 mm^3 in test [5] (10 mg/kg on day 1, 8, 15). The Tumor weight in test [4] (10 mg/kg on day 1, 8, 15, D22) is 1811.5 (D22) mg; in test [5] (setting [6]), 914.36 mg. In test [5] (setting [6]), the “Tumor weight Inhibition ratio” value is on record as −6.80%.

As for `CCCC(=O)N[C@@H](Cc1ccccc1)C(=O)N[C@H]1CSSC[C@@H](C(=O)N[C@H](C(=O)N[C@@H](CCCCNC(=O)[C@H](CCC(=O)O)NC(=O)CCOCCOCCOCCOCCNC(=O)[C@H](CCC(=O)O)NC(=O)[C@H](CSC2CC(=O)N(CCCCCC(=O)NCC(=O)NCC(=O)N[C@@H](Cc3ccccc3)C(=O)NCC(=O)NCOCC(=O)N[C@H]3CCc4c(C)c(F)cc5nc6c(c3c45)Cn3c-6cc4c(c3=O)COC(=O)[C@]4(O)CC)C2=O)NC(=O)CC[C@H](NC(=O)c2ccc(NCc3cnc4[nH]c(N)nc(=O)c4n3)cc2)C(=O)O)C(N)=O)[C@@H](C)O)NC(=O)[C@H]([C@@H](C)O)NC(=O)[C@H](CCCCN)NC(=O)[C@H](Cc2c[nH]c3ccccc23)NC(=O)[C@H](Cc2ccc(O)cc2)NC1=O` (stereo partly shown) [CR19426], the values for the IC50 in test [1], in test [2] and in test [3] were 1660 nM, 4390 nM and 2300 nM, respectively.

The values above are taken from US20220175761A1, “BI-LIGAND DRUG CONJUGATE AND USE THEREOF” (COHERENT BIOPHARMA (SUZHOU), LIMITED, priority 2019, published 2022).
